In patent US4304782A, “Psychotropic deuterated derivatives of phenylhydantoin and pharmaceutical compositions comprising such derivatives” (Region Wallonne, priority 1979, dated 1981):
“Also recorded” adds a separate entry of the source.

Legend:
[1] = test system: convulsions caused by pentylene tetrazole; assay: Protection against convulsions caused by pentylene tetrazole (PTZ) in adult female Wistar rats after oral administration; assay type: in vivo, rat (Wistar; parameters: key to Chi2 difference between the doses (100 and 200 mgr/kg) / Chi2 difference between the times: NS: not significant; conditions: for Chi2 difference between the doses (100 and 200 mgr/kg): 100 vs 200 mgr/kg; for Chi2 difference between the times: 1 hour vs 2 hours + 4 hours; for Chi2 difference between the times / Chi2 difference between DPH and deuterated DPH: * P < 0.05, ** P < 0.01; for Anticonvulsive activity compared with DPH: in comparison with diphenylhydantoin; for Protection of rats against the convulsive effect of PTZ (number of protected animals / total number of animals): PTZ 100 mgr/kg intraperitoneally
Description: The active substances according to the invention were tested in order to examine their activity and their effects in comparison with known diphenylhydantoin (DPH). In these tests as follows, 5-(paradeuterophenyl)-5-phenylhydantoin will be designated by DPH-d1 and 5-phenyl-d5 -5-phenylhydantoin by DPH-d5.
To examine the anticonvulsive activity of these substances, they were subjected to testing as to protection against convulsions caused by pentylene tetrazole on adult female rat (Wistar strain: 200-220 gr). One, two or four hours after oral administration of hydantoins (100 and 200 mgr/kg: solution in dimethyl sulfoxide/propylene glycol), animals have received a dose of 100 mgr/kg of pentylene tetrazole (PTZ) intraperitonally, then they were maintained under observation for 1 hour. The absence of appearance of convulsions was considered as a positive response. The results are expressed in the following table I as the ratio between the number of protected animals and the total number of animals.
The research of significant differences has been made on the following aspects: between DPH and deuterated DPH at 1 hour at doses of 100 and 200 mgr/kg, between DPH and deuterated DPH at any time and at a dose of 100 mgr/kg, between doses of 100 and 200 mgr/kg and between the times.

[2] = Repartition in tissues (brain/blood ratio) after oral administration, rats, titration by gaseous chromatography; assay type: in vivo; conditions: female rat ± 200 gr, oral 100 mg/kg; for Kp at 1 h: after 1 hour; for Kp at 2 h: after 2 hours
From the text: (§1) The contents of the various tissues in DPH, DPH-d1 and DPH-d5 have been determined at two times after oral administration (male mice, female rats, titration by gaseous chromatography).
(§2) The whole results are mentioned in the following table III. The indicated values represent the ratio of active substance concentrations in the brain and blood. After oral administration, these values as well in rat as in mouse show a trend, which is marked to very marked, to be higher for deuterated DPH than for DPH itself.

[3] = Repartition in tissues (brain/blood ratio) after oral administration, mice, titration by gaseous chromatography; assay type: in vivo; conditions: mouse, 100 mg/kg, male mice 20-25gr, oral 100 mgr/kg; for Kp at 2 h: after 2 hours; for Kp at 24 h: after 24 hours
From the text: as §1, §2

[4] = Accumulation in the cerebral tissue (general statement); assay type: in vivo; conditions: in comparison with diphenylhydantoin
From the text: as §1, §2

Row | SMILES | Chi2 difference between the doses (100 and 200 mgr/kg) [1] | Chi2 difference between the times [1] | Chi2 difference between DPH and deuterated DPH ([1]; at 1 hour, 100 mgr/kg) | Chi2 difference between DPH and deuterated DPH ([1]; at 1 hour, 200 mgr/kg) | Chi2 difference between DPH and deuterated DPH ([1]; at any time, 100 mgr/kg) | Anticonvulsive activity compared with DPH [1] | Protection of rats against the convulsive effect of PTZ (number of protected animals / total number of animals) ([1]; oral 100 mgr/kg, 1 hour) | Protection of rats against the convulsive effect of PTZ (number of protected animals / total number of animals) ([1]; oral 100 mgr/kg, 2 hours) | Protection of rats against the convulsive effect of PTZ (number of protected animals / total number of animals) ([1]; oral 100 mgr/kg, 4 hours) | Protection of rats against the convulsive effect of PTZ (number of protected animals / total number of animals) ([1]; oral 200 mgr/kg, 1 hour) | Kp at 1 h [2] | Kp at 2 h [2] | Kp at 2 h [3] | Kp at 24 h [3] | Anticonvulsive activity compared with DPH ([1]; listed as (R,S)-5-phenyl-d5 -5-phenylhydantoin) | Accumulation in the cerebral tissue [4]
1 | [2H]c1ccc(C2(c3ccccc3)NC(=O)NC2=O)cc1 (stereo not shown) [DPH-d1, 5-(paradeuterophenyl)-5-phenylhydantoin] | NS | 3.93 | 9.42 | 4.36 | 9.40 | better protects the animals against the convulsive effect of PTZ than DPH; also recorded: higher anticonvulsive activity | 9/14 | 4/10 | 2/10 | 11/30 | 2.1 ± 0.41 | 15.5 ± 3.7 |  |  |  | 
2 | O=C1NC(=O)C(c2ccccc2)(c2ccccc2)N1 [DPH, 5,5-diphenylhydantoin, reference compound] | NS | NS |  |  |  |  | 4/25 | 2/10 | 0/10 | 5/35 | 0.9 ± 0.13 | 5.91 ± 0.93 | 1.45 ± 0.1 | 2.09 ± 0.22 |  | 
3 | [2H]c1c([2H])c([2H])c(C2(c3ccccc3)NC(=O)NC2=O)c([2H])c1[2H] (stereo not shown) [DPH-d5, 5-phenyl-d5-5-phenylhydantoin] | NS | 3.58 | 2.17 | 2.92 | 1.22 | A difference in the same direction, close to the significance limit; also recorded: higher anticonvulsive activity | 7/20 | 2/10 | 0/10 | 11/35 | 2.15 ± 0.37 | 4.49 ± 1.33 | 2.35 ± 0.26 | 2.97 ± 0.3 | higher anticonvulsive activity than diphenylhydantoin | accumulation in the cerebral tissue more favorably
4 | [2H]c1c([2H])c([2H])c(C2(c3c([2H])c([2H])c([2H])c([2H])c3[2H])NC(=O)NC2=O)c([2H])c1[2H] [5,5-di-(phenyl-d5)-hydantoin] |  |  |  |  |  | higher anticonvulsive activity than diphenylhydantoin |  |  |  |  |  |  |  |  |  | accumulation in the cerebral tissue more favorably
